# Results: the supplement of paper PMC10307832
# Key:
# Experiment in all cases: relative viability (nuclei count vs DMSO), 5 days (fraction); higher = more cells survive
# UMC-11 = tested on: UMC-11
# How it was run: (§1)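 The day after seeding in 1536-well plates, lung cancer cell lines were treated by pin tool with a single drug, or with a fixed anchor-drug dose together with five library-drug doses (not always all listed) in √10 steps. After 5 days, a combined fix-and-stain solution (final 0.05% Triton X-100, 1% formaldehyde, 1 ug/ml Hoechst) was added. Nuclei counted on 4× images gave relative viability as treated counts over vehicle counts, reported as the median of duplicate plates.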
# NCI-H23 = tested on: NCI-H23
# How it was run: as §1
# NCI-H322M = tested on: NCI-H322M
# How it was run: as §1
# LCLC-97TM1 = tested on: LCLC-97TM1
# How it was run: as §1
# NCI-H1355 = tested on: NCI-H1355
# How it was run: as §1
# NCI-H1993 = tested on: NCI-H1993
# How it was run: as §1
# NCI-H596 = tested on: NCI-H596
# How it was run: as §1
# NCI-H1623 = tested on: NCI-H1623
# How it was run: as §1
# A549 = tested on: A549
# How it was run: as §1
compound,measurement,setting,value
CC(=O)O[C@@]12CO[C@@H]1C[C@H](O)[C@@]1(C)C(=O)[C@H](O)C3=C(C)[C@@H](OC(=O)[C@H](O)[C@@H](NC(=O)OC(C)(C)C)c4ccccc4)C[C@@](O)([C@@H](OC(=O)c4ccccc4)[C@H]21)C3(C)C [Docetaxel] + Cc1nc(Nc2ncc(C(=O)Nc3c(C)cccc3Cl)s2)cc(N2CCN(CCO)CC2)n1 [Dasatinib] (partner 0.075 µM),relative viability,UMC-11; first compound 0.0002 µM,0.429
same,relative viability,UMC-11; first compound 0.000632 µM,0.42
same,relative viability,UMC-11; first compound 0.002 µM,0.264
same,relative viability,UMC-11; first compound 0.006325 µM,0.21
same,relative viability,UMC-11; first compound 0.02 µM,0.171
same,relative viability,NCI-H23; first compound 0.0002 µM,0.838
same,relative viability,NCI-H23; first compound 0.000632 µM,0.777
same,relative viability,NCI-H23; first compound 0.002 µM,0.483
same,relative viability,NCI-H23; first compound 0.006325 µM,0.188
same,relative viability,NCI-H23; first compound 0.02 µM,0.0867
same,relative viability,NCI-H322M; first compound 0.0002 µM,0.242
same,relative viability,NCI-H322M; first compound 0.000632 µM,0.251
same,relative viability,NCI-H322M; first compound 0.002 µM,0.372
same,relative viability,NCI-H322M; first compound 0.006325 µM,0.406
same,relative viability,NCI-H322M; first compound 0.02 µM,0.346
same,relative viability,LCLC-97TM1; first compound 0.0002 µM,0.843
same,relative viability,LCLC-97TM1; first compound 0.000632 µM,0.762
same,relative viability,LCLC-97TM1; first compound 0.002 µM,0.675
same,relative viability,LCLC-97TM1; first compound 0.006325 µM,0.273
same,relative viability,LCLC-97TM1; first compound 0.02 µM,0.144
same,relative viability,NCI-H1355; first compound 0.0002 µM,0.726
same,relative viability,NCI-H1355; first compound 0.000632 µM,0.665
same,relative viability,NCI-H1355; first compound 0.002 µM,0.472
same,relative viability,NCI-H1355; first compound 0.006325 µM,0.314
same,relative viability,NCI-H1355; first compound 0.02 µM,0.203
same,relative viability,NCI-H1993; first compound 0.0002 µM,0.569
same,relative viability,NCI-H1993; first compound 0.000632 µM,0.612
same,relative viability,NCI-H1993; first compound 0.002 µM,0.589
same,relative viability,NCI-H1993; first compound 0.006325 µM,0.638
same,relative viability,NCI-H1993; first compound 0.02 µM,0.465
same,relative viability,NCI-H596; first compound 0.0002 µM,0.551
same,relative viability,NCI-H596; first compound 0.000632 µM,0.6
same,relative viability,NCI-H596; first compound 0.002 µM,0.543
same,relative viability,NCI-H596; first compound 0.006325 µM,0.397
same,relative viability,NCI-H596; first compound 0.02 µM,0.222
same,relative viability,NCI-H1623; first compound 0.0002 µM,0.555
same,relative viability,NCI-H1623; first compound 0.000632 µM,0.529
same,relative viability,NCI-H1623; first compound 0.002 µM,0.472
same,relative viability,NCI-H1623; first compound 0.006325 µM,0.313
same,relative viability,NCI-H1623; first compound 0.02 µM,0.239
CC(=O)O[C@@]12CO[C@@H]1C[C@H](O)[C@@]1(C)C(=O)[C@H](O)C3=C(C)[C@@H](OC(=O)[C@H](O)[C@@H](NC(=O)OC(C)(C)C)c4ccccc4)C[C@@](O)([C@@H](OC(=O)c4ccccc4)[C@H]21)C3(C)C [Docetaxel] + N=C(N)NC(=N)NCCc1ccccc1 [Phenformin] (partner 250 µM),relative viability,UMC-11; first compound 0.0002 µM,0.309
same,relative viability,UMC-11; first compound 0.000632 µM,0.332
same,relative viability,UMC-11; first compound 0.002 µM,0.228
same,relative viability,UMC-11; first compound 0.006325 µM,0.205
same,relative viability,UMC-11; first compound 0.02 µM,0.199
same,relative viability,NCI-H23; first compound 0.0002 µM,0.801
same,relative viability,NCI-H23; first compound 0.000632 µM,0.702
same,relative viability,NCI-H23; first compound 0.002 µM,0.475
same,relative viability,NCI-H23; first compound 0.006325 µM,0.2
same,relative viability,NCI-H23; first compound 0.02 µM,0.121
same,relative viability,A549; first compound 0.0002 µM,0.203
same,relative viability,A549; first compound 0.000632 µM,0.0682
same,relative viability,A549; first compound 0.002 µM,0.0555
same,relative viability,A549; first compound 0.006325 µM,0.0466
same,relative viability,A549; first compound 0.02 µM,0.0476
same,relative viability,NCI-H322M; first compound 0.0002 µM,0.807
same,relative viability,NCI-H322M; first compound 0.000632 µM,0.765
same,relative viability,NCI-H322M; first compound 0.002 µM,0.656
same,relative viability,NCI-H322M; first compound 0.006325 µM,0.478
same,relative viability,NCI-H322M; first compound 0.02 µM,0.332
same,relative viability,LCLC-97TM1; first compound 0.0002 µM,0.403
same,relative viability,LCLC-97TM1; first compound 0.000632 µM,0.366
same,relative viability,LCLC-97TM1; first compound 0.002 µM,0.267
same,relative viability,LCLC-97TM1; first compound 0.006325 µM,0.162
same,relative viability,LCLC-97TM1; first compound 0.02 µM,0.131
same,relative viability,NCI-H1355; first compound 0.0002 µM,0.463
same,relative viability,NCI-H1355; first compound 0.000632 µM,0.402
same,relative viability,NCI-H1355; first compound 0.002 µM,0.385
same,relative viability,NCI-H1355; first compound 0.006325 µM,0.287
same,relative viability,NCI-H1355; first compound 0.02 µM,0.217
same,relative viability,NCI-H1993; first compound 0.0002 µM,0.559
same,relative viability,NCI-H1993; first compound 0.000632 µM,0.604
same,relative viability,NCI-H1993; first compound 0.002 µM,0.556
same,relative viability,NCI-H1993; first compound 0.006325 µM,0.489
same,relative viability,NCI-H1993; first compound 0.02 µM,0.439
same,relative viability,NCI-H596; first compound 0.0002 µM,0.827
same,relative viability,NCI-H596; first compound 0.000632 µM,0.773
same,relative viability,NCI-H596; first compound 0.002 µM,0.635
same,relative viability,NCI-H596; first compound 0.006325 µM,0.438
same,relative viability,NCI-H596; first compound 0.02 µM,0.235
same,relative viability,NCI-H1623; first compound 0.0002 µM,0.54
same,relative viability,NCI-H1623; first compound 0.000632 µM,0.568
same,relative viability,NCI-H1623; first compound 0.002 µM,0.494
same,relative viability,NCI-H1623; first compound 0.006325 µM,0.313
same,relative viability,NCI-H1623; first compound 0.02 µM,0.239
